According to US20250017910A1, “2-Thioxothiazolidine-4-One Derivatives And Their Uses” (Prosetta Biosciences, Inc., priority 2023, published 2025):

Target: T1, alpha syn aggregates (Homo sapiens, UniProt P37840)
T1 construct: expressed in transfected cells; host or cells: NLF cells, Tet-on inducible expression
Test: Assay for Methamphetamine Addiction: alpha syn aggregates in NLF cells with or without amphetamine
Format: cell-based
Details: FIG. 1
Description: FIG. 1 illustrates the average number of a syn aggregates per cell.
NLF cells were transfected with alpha synuclein behind a Tet-on promoter and induced to express alpha syn, resulting in the appearance of alpha syn aggregates. […] Aggregates were counted in ten randomly chosen fields and highest 3 in all conditions were quantified.

| Compound | number of alpha syn aggregates (treatment with 0.5 mM amphetamine) | amphetamine mediated increase of alpha syn aggregates (0.5 mM amphetamine and 1 μM of compound) | number of alpha syn aggregates (treatment with 1 μM of compound) |
| --- | --- | --- | --- |
| CC(N)Cc1ccccc1 (stereo not drawn) [amphetamine, reference compound] | increased the number of aggregates | – | – |
| CN1CCN(c2ccc(-c3ccc(/C=C4\SC(=S)N(CCc5ccccc5)C4=O)o3)cc2)CC1 [Compound 13] | – | eliminated the amphetamine mediated increase of aggregates | reduced the number of aggregates |
